pIC50, pKi: −log10 of the molar value.
How the values were obtained:
CLC-2 = CLC-2 (Homo sapiens (Human), UniProt P51788); settings: preliminary data, Xenopus oocytes
NET = NET (Homo sapiens (Human), UniProt P23975); assay: PDSP primary binding assay; settings: primary binding assay at 10 μM
Experimental: (§1) Two exemplary compounds, FA44 and FA26, were screened against a panel of CNS receptors, transporters, and ion channels to examine specificity for CLC-2 in the brain. A comprehensive primary binding assay screen was performed through the NIH Psychoactive Drug Screening Program (PDSP) at UNC-Chapel Hill. Secondary or functional assays were performed for compounds showing >50% activity in the primary assay.

Sigma 1 = Sigma 1 (Homo sapiens (Human), UniProt Q99720); assay: PDSP primary binding assay; settings: primary binding assay at 10 μM
Chain of Sigma 1 (Q99720 whole entry): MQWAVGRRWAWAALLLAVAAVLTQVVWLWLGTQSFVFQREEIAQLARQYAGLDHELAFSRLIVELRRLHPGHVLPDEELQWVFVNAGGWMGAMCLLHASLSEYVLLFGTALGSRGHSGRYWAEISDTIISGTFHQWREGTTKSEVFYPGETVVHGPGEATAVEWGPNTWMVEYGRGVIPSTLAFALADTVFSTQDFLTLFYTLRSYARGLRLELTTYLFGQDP
Experimental: as §1

5-HT2B = 5-HT2B (Homo sapiens (Human), UniProt P41595); assay: PDSP primary binding assay; settings: primary binding assay at 10 μM
Chain of 5-HT2B (P41595 whole entry, species assumed): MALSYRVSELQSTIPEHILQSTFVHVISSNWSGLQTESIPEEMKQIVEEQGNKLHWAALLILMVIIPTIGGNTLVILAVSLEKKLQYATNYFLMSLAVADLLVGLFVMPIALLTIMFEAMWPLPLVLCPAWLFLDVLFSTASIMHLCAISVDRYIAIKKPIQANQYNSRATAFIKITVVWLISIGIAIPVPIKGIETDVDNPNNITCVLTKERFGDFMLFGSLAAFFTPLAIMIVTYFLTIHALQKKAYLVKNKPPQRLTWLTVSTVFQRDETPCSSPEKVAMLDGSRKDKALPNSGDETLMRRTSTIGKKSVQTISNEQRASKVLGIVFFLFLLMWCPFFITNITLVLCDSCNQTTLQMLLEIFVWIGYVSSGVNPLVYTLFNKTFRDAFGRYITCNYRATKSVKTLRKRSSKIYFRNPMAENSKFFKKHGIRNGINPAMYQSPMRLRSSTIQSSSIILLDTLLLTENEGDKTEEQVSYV
Experimental: as §1

Alpha1A = Alpha1A (Homo sapiens (Human), UniProt P35348); assay: PDSP primary binding assay; settings: primary binding assay at 10 μM
Chain of Alpha1A (P35348 whole entry): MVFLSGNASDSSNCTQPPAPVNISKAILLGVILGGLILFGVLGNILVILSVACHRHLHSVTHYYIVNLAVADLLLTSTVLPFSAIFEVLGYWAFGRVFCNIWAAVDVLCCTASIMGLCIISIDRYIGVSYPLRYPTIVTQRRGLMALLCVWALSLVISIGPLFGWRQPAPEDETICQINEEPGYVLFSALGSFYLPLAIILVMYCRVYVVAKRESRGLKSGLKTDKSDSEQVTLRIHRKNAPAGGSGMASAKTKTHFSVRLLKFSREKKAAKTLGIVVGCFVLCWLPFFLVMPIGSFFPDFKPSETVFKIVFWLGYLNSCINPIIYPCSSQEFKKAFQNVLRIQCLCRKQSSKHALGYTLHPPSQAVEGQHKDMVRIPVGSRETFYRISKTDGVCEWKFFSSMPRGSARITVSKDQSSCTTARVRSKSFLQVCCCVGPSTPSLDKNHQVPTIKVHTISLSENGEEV
Experimental: as §1

5-HT7 = 5-HT7 (Homo sapiens (Human), UniProt P34969); assay: PDSP primary binding assay; settings: primary binding assay at 10 μM
Chain of 5-HT7 (P34969 whole entry, species assumed): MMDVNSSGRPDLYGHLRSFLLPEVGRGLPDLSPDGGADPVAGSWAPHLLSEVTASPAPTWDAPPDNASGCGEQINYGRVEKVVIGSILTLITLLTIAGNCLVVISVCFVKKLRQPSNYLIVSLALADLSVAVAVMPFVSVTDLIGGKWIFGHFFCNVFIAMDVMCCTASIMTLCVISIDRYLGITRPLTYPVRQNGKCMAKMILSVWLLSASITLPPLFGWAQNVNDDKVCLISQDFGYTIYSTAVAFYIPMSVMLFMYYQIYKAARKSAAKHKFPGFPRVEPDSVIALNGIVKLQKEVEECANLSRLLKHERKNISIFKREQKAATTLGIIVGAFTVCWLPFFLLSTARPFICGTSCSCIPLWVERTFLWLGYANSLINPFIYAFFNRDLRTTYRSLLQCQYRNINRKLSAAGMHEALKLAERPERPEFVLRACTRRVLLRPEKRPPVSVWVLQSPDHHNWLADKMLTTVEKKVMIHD
Experimental: as §1

H3 = H3 (Homo sapiens (Human), UniProt Q9Y5N1); assay: PDSP primary binding assay; settings: primary binding assay at 10 μM
Experimental: as §1

5-HT1E = 5-HT1E (Homo sapiens (Human), UniProt P28566); assay: PDSP primary binding assay; settings: primary binding assay at 10 μM
Chain of 5-HT1E (P28566 whole entry, species assumed): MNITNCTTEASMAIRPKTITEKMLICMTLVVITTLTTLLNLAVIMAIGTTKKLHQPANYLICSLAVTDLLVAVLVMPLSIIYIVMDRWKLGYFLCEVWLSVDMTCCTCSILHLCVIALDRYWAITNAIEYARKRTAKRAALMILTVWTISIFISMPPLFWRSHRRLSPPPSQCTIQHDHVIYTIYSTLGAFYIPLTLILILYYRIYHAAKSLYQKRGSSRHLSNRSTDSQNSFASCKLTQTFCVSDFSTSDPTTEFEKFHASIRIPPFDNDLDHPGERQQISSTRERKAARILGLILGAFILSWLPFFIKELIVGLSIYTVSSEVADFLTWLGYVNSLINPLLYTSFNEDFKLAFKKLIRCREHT
Experimental: as §1

Alpha1B = Alpha1B (Homo sapiens (Human), UniProt P35368); assay: PDSP primary binding assay; settings: primary binding assay at 10 μM
Experimental: as §1

SERT = SERT (Homo sapiens (Human), UniProt P31645); assay: PDSP primary binding assay; settings: primary binding assay at 10 μM
Chain of SERT (P31645 whole entry, species assumed): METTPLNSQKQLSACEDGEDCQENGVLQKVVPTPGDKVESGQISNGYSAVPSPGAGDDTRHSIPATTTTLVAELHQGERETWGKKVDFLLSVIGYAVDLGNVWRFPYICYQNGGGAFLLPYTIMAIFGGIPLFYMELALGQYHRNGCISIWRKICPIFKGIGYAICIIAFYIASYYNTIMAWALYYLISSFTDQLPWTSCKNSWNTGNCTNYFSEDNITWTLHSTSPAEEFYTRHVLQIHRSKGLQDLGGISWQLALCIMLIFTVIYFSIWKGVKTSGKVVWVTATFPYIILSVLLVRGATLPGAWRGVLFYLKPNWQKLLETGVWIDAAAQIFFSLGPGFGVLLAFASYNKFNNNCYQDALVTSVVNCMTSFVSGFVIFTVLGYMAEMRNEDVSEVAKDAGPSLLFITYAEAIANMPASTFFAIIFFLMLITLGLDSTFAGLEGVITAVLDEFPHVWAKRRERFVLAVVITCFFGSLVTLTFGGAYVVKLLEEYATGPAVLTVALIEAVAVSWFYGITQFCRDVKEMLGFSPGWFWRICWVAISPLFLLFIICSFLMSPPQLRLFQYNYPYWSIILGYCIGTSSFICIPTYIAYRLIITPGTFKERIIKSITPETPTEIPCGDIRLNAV
Experimental: as §1

5-HT2C = 5-HT2C (Homo sapiens (Human), UniProt P28335); assay: PDSP primary binding assay; settings: primary binding assay at 10 μM
Chain of 5-HT2C (P28335 33-458, species assumed): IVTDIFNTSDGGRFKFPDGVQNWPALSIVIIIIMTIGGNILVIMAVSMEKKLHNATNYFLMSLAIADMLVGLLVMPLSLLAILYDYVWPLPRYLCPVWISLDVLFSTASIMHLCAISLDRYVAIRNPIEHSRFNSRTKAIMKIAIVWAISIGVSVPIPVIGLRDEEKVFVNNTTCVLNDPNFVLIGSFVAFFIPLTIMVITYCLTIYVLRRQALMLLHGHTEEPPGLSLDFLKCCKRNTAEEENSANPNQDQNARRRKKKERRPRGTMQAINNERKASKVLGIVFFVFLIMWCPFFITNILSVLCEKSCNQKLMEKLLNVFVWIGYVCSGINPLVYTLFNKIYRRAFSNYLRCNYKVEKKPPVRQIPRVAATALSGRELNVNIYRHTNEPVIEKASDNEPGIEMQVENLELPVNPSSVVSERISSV
Experimental: as §1

D3 = D3 (Homo sapiens (Human), UniProt P35462); assay: PDSP primary binding assay; settings: primary binding assay at 10 μM
Chain of D3 (P35462 whole entry): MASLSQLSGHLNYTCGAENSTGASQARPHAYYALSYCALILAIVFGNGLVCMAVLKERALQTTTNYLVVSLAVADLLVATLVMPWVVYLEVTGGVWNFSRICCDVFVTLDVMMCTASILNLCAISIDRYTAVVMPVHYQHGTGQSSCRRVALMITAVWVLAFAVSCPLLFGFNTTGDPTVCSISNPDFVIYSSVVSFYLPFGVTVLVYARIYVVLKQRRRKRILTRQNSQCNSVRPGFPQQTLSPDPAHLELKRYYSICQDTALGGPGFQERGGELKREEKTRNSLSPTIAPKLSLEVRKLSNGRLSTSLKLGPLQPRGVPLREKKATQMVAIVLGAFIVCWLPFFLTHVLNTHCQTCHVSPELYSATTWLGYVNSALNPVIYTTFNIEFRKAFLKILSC
Experimental: as §1

5-HT5A = 5-HT5A (Homo sapiens (Human), UniProt P47898); assay: PDSP primary binding assay; settings: primary binding assay at 10 μM
Chain of 5-HT5A (P47898 whole entry, species assumed): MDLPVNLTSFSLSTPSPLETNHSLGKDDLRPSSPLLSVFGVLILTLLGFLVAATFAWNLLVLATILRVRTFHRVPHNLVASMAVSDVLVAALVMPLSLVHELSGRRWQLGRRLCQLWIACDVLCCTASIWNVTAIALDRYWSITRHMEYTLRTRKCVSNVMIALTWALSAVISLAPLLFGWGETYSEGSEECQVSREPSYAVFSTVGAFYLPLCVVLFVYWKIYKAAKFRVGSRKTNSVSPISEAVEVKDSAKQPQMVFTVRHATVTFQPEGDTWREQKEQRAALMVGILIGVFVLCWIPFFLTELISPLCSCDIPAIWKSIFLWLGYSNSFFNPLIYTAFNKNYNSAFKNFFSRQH
Experimental: as §1

DOR = DOR (Homo sapiens (Human), UniProt P41143); assay: PDSP primary binding assay; settings: primary binding assay at 10 μM
Experimental: as §1

5-HT6 = 5-HT6 (Homo sapiens (Human), UniProt P50406); assay: PDSP primary binding assay; settings: primary binding assay at 10 μM
Chain of 5-HT6 (P50406 whole entry, species assumed): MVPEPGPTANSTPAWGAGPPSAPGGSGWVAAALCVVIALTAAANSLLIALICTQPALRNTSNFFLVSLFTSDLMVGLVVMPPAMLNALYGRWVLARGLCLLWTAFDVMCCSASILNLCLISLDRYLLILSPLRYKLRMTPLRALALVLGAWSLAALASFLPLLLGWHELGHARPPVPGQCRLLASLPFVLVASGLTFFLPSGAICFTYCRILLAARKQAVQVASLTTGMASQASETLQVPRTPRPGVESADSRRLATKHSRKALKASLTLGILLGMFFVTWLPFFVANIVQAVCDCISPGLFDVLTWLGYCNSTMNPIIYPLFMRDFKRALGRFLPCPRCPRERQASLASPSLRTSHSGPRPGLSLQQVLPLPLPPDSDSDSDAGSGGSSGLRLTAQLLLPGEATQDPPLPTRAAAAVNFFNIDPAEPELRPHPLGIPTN
Experimental: as §1

5-HT3 = 5-HT3 (Homo sapiens (Human), UniProt P46098); assay: PDSP primary binding assay; settings: primary binding assay at 10 μM
Chain of 5-HT3 (P46098 24-478, species assumed): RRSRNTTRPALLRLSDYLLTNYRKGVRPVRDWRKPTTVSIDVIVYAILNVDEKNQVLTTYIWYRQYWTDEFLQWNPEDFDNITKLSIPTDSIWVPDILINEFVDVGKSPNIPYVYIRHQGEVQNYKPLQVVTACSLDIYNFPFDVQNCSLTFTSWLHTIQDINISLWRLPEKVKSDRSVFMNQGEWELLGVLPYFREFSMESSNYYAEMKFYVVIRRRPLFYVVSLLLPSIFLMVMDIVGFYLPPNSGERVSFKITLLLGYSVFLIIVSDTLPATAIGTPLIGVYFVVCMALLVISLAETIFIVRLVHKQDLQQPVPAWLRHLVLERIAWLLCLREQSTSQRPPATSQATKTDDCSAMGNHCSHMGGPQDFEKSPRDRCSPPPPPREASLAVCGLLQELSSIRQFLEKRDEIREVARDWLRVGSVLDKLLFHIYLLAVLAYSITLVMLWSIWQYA
Experimental: as §1

KOR = KOR (Homo sapiens (Human), UniProt P41145); assay: PDSP primary binding assay; settings: primary binding assay at 10 μM
Experimental: as §1

AMPA = assay: PDSP primary binding assay; settings: primary binding assay at 10 μM
Experimental: as §1

NOP = NOP (Homo sapiens (Human), UniProt P41146); assay: PDSP primary binding assay; settings: primary binding assay at 10 μM
Experimental: as §1

5-HT1D = 5-HT1D (Homo sapiens (Human), UniProt P28221); assay: PDSP primary binding assay; settings: primary binding assay at 10 μM
Experimental: as §1

mGluR6 = mGluR6 (Homo sapiens (Human), UniProt O15303); assay: PDSP functional assay; format: biochemical; settings: only a functional assay was performed
Experimental: as §1

mGluR8 = mGluR8 (Homo sapiens (Human), UniProt O00222); assay: PDSP functional assay; format: biochemical; settings: only a functional assay was performed
Experimental: as §1

mGluR2 = mGluR2 (Homo sapiens (Human), UniProt Q14416); assay: PDSP functional assay; format: biochemical; settings: only a functional assay was performed
Experimental: as §1

mGluR4 = mGluR4 (Homo sapiens (Human), UniProt Q14833); assay: PDSP functional assay; format: biochemical; settings: only a functional assay was performed
Experimental: as §1

mGluR1 = mGluR1 (Homo sapiens (Human), UniProt Q13255); assay: PDSP functional assay; format: biochemical; settings: only a functional assay was performed
Experimental: as §1

CLC-1 = CLC-1 (Homo sapiens (Human), UniProt P35523); assay: two-electrode voltage clamp electrophysiology in Xenopus oocytes, CLC-1; format: cell-based; settings: preliminary data, read-out: IC50 against CLC-1
A2A = A2A (Homo sapiens (Human), UniProt P29274); assay: PDSP primary binding assay; settings: primary binding assay at 10 μM
Experimental: as §1

V1B = V1B (Homo sapiens (Human), UniProt P47901); assay: PDSP primary binding assay; settings: primary binding assay at 10 μM
Experimental: as §1

V1A = V1A (Homo sapiens (Human), UniProt P37288); assay: PDSP primary binding assay; settings: primary binding assay at 10 μM
Experimental: as §1

[1] = tested on: panel of CNS receptors, channels, and transporters; assay: PDSP screen against panel of CNS receptors, transporters, and ion channels (overall); format: binding
Experimental: as §1

Row | SMILES | % (10 μM) (NET) [%] | % (10 μM) (Sigma 1) [%] | % (10 μM) (5-HT2B) [%] | % (10 μM) (Alpha1A) [%] | % (10 μM) (5-HT7) [%] | % (10 μM) (H3) [%] | % (10 μM) (5-HT1E) [%] | % (10 μM) (Alpha1B) [%] | % (10 μM) (SERT) [%] | % (10 μM) (5-HT2C) [%] | % (10 μM) (D3) [%] | % (10 μM) (5-HT5A) [%] | % (10 μM) (DOR) [%] | % (10 μM) (5-HT6) [%] | % (10 μM) (5-HT3) [%] | % (10 μM) (KOR) [%] | % (10 μM) (AMPA) [%] | % (10 μM) (NOP) [%] | % (10 μM) (5-HT1D) [%] | pKi (mGluR1) | other results
1 | O=C(O)c1ccccc1Nc1c(Cl)ccc(OCc2ccccc2)c1Cl [AK3-99B] | 33.59 | 3.95 | 14.38 | 24.26 | −29.75 | −5.97 | 11.82 | 4.33 | 4.65 | −11.17 | 18.42 | −5.77 | 16.22 | −10.67 | −7.63 | 29.90 | 21.14 | 24.65 | 6.77 | < 5.00 | selectivity among CLC-1, CLC-2, CLC-Ka, CLC-Kb (CLC-2): selective for CLC-2; pKi (mGluR6): < 5.00; pKi (mGluR8): < 5.00; pKi (mGluR2): < 5.00; pKi (mGluR4): < 5.00; pIC50 (CLC-1): < 3.60
2 | O=C(O)c1cccnc1Nc1c(Cl)ccc(OCc2ccccc2)c1Cl [AK3-238] | 17.36 | 38.52 | 45.16 | 12.29 | 17.51 | −0.92 | 10.43 | 4.90 | 30.25 | −13.39 | −4.66 | 28.19 | 16.59 | 18.68 | 28.75 | 4.11 | 28.20 | 21.14 | 44.06 | < 5.00 | % (10 μM) (A2A): −8.70%; % (10 μM) (V1B): 40.53%; % (10 μM) (V1A): 23.96%; off-target effects among panel of CNS receptors, channels, and transporters [1]: no off-target effects

— patent US11173137B2, “Compositions and methods to modulate chloride ion channel activity” (The Board of Trustees of the Leland Stanford Junior …, priority 2018, dated 2021)
